PubChem BioAssay AID248 (DTP/NCI, 2004)
Where “and” joins values, the source holds several entries; their conditions need not be identical. Identical values can stand only once. Inconclusive results and toxic doses are left out.

Tested on: L1210 leukemia ip in BDF1 mice, survival T/C
Test: NCI In Vivo Anticancer Drug Screen. Data for tumor model L1210 Leukemia (intraperitoneal) in B6D2F1 (BDF1) mice
Settings: endpoint: mean survival time, higher = longer survival
Summary of the method: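 Tumor cells were implanted, animals were treated, and survival was followed. The result divides the treated measurement by the vehicle-control measurement.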

[1] = dose: 100.0 mg/kg/injection, schedule: Q04DX003 (ip), vehicle: Klucel (hydroxypropylcellulose) (HPC)
[2] = dose: 200.0 mg/kg/injection, schedule: Q04DX003 (ip), vehicle: Klucel (hydroxypropylcellulose) (HPC)
[3] = dose: 400.0 mg/kg/injection, schedule: Q04DX003 (ip), vehicle: Klucel (hydroxypropylcellulose) (HPC)

In the case of O=C1CN(CCN2CC(=O)NC(=O)C2)CC(=O)N1, the T/C (dose: 6.25 mg/kg/injection, schedule: Q03HX008 (ip), vehicle: steriod suspending solution) is reported as 112 % of control, the T/C (dose: 10.8 mg/kg/injection, schedule: Q01DX009 (ip), vehicle: steriod suspending solution) is reported as 103 % of control and the T/C (dose: 12.5 mg/kg/injection, schedule: Q01DX009 (ip), vehicle: steriod suspending solution) is reported as 154 % of control. The T/C (dose: 12.5 mg/kg/injection, schedule: Q01DX009 (oral), vehicle: steriod suspending solution) was 123 % of control, the T/C (dose: 12.5 mg/kg/injection, schedule: Q01DX009 (sc), vehicle: steriod suspending solution) was 116 % of control and the T/C (dose: 12.5 mg/kg/injection, schedule: Q03HX024 (ip), vehicle: steriod suspending solution) was 177 % of control. The T/C (dose: 12.5 mg/kg/injection, schedule: Q03HX032 (ip), vehicle: other) was 156 % of control and 167 % of control, the T/C (dose: 14.0 mg/kg/injection, schedule: Q01DX009 (ip), vehicle: steriod suspending solution) was 108 % of control and the T/C (dose: 18.7 mg/kg/injection, schedule: Q03HX032 (ip), vehicle: other) was 214 % of control and 216 % of control. For the same molecule, the T/C (dose: 23.0 mg/kg/injection, schedule: Q01DX009 (ip), vehicle: steriod suspending solution) was 119 % of control, the T/C (dose: 25.0 mg/kg/injection, schedule: Q01DX009 (oral), vehicle: steriod suspending solution) was 116 % of control and the T/C (dose: 25.0 mg/kg/injection, schedule: Q01DX Z (ip), vehicle: steriod suspending solution) was 150 % of control. The T/C (dose: 25.0 mg/kg/injection, schedule: Q03HX024 (ip), vehicle: steriod suspending solution) was 153 % of control, the T/C (dose: 39.0 mg/kg/injection, schedule: Q01DX001 (ip), vehicle: steriod suspending solution) was 109 % of control and the T/C (dose: 39.0 mg/kg/injection, schedule: Q01DX009 (ip), vehicle: steriod suspending solution) was 152 % of control. For the same molecule, the T/C (dose: 50.0 mg/kg/injection, schedule: Q01DX001 (ip), vehicle: steriod suspending solution) was 107 % of control, the T/C (dose: 50.0 mg/kg/injection, schedule: Q01DX009 (ip), vehicle: steriod suspending solution) was 212 % of control and the T/C (dose: 50.0 mg/kg/injection, schedule: Q01DX009 (oral), vehicle: steriod suspending solution) was 113 % of control. For the same molecule, the T/C (dose: 50.0 mg/kg/injection, schedule: Q01DX009 (sc), vehicle: steriod suspending solution) was 154 % of control, the T/C (dose: 50.0 mg/kg/injection, schedule: Q01DX Z (ip), vehicle: steriod suspending solution) was 164 % of control and the T/C (dose: 50.0 mg/kg/injection, schedule: Q03HX008 (ip), vehicle: steriod suspending solution) was 164 % of control. The T/C (dose: 50.0 mg/kg/injection, schedule: Q03HX024 (ip), vehicle: steriod suspending solution) was 165 % of control, the T/C (dose: 65.0 mg/kg/injection, schedule: Q01DX001 (ip), vehicle: steriod suspending solution) was 118 % of control and the T/C (dose: 65.0 mg/kg/injection, schedule: Q01DX009 (ip), vehicle: steriod suspending solution) was 176 % of control. For the same molecule, the T/C (dose: 100.0 mg/kg/injection, schedule: Q01DX001 (ip), vehicle: steriod suspending solution) was 112 % of control, the T/C (dose: 100.0 mg/kg/injection, schedule: Q01DX009 (oral), vehicle: steriod suspending solution) was 121 % of control and the T/C (dose: 100.0 mg/kg/injection, schedule: Q04DX003 (ip), vehicle: steriod suspending solution) was 154 % of control. The T/C (dose: 200.0 mg/kg/injection, schedule: Q01DX001 (ip), vehicle: steriod suspending solution) was 166 % of control, the T/C (dose: 200.0 mg/kg/injection, schedule: Q04DX003 (ip), vehicle: steriod suspending solution) was 189 % of control and the T/C (dose: 400.0 mg/kg/injection, schedule: Q01DX001 (ip), vehicle: steriod suspending solution) was 119 % of control. For the same molecule, the T/C (dose: 400.0 mg/kg/injection, schedule: Q04DX003 (ip), vehicle: steriod suspending solution) was 162 % of control.

With O=[N+]([O-])c1cnc(C2=C(O)c3ccccc3CC2)s1 the T/C (dose: 100.0 mg/kg/injection, schedule: Q01DX001 (ip), vehicle: saline with Tween-80) was 97 % of control.

Cc1ccc(C(=O)CCl)c(C)c1 was tested, and the T/C (dose: 12.5 mg/kg/injection, schedule: Q01DX009 (ip), vehicle: saline with Tween-80) was 95 % of control, the T/C (dose: 25.0 mg/kg/injection, schedule: Q01DX009 (ip), vehicle: saline with Tween-80) was 100 % of control and the T/C (dose: 50.0 mg/kg/injection, schedule: Q01DX009 (ip), vehicle: saline with Tween-80) was 103 % of control.

CC(=O)Nc1cncc2ccccc12 was tested, and the T/C (dose: 100.0 mg/kg/injection, schedule: Q01DX009 (ip), vehicle: other) was 104 % of control, the T/C (dose: 100.0 mg/kg/injection, schedule: Q04DX002 (ip), vehicle: other) was 97 % of control and the T/C (dose: 200.0 mg/kg/injection, schedule: Q01DX009 (ip), vehicle: other) was 101 % of control. For the same molecule, the T/C (dose: 200.0 mg/kg/injection, schedule: Q04DX002 (ip), vehicle: other) was 105 % of control, the T/C (dose: 400.0 mg/kg/injection, schedule: Q01DX009 (ip), vehicle: other) was 106 % of control and the T/C (dose: 400.0 mg/kg/injection, schedule: Q04DX002 (ip), vehicle: other) was 105 % of control.

In the case of Cc1ccc(-n2c(O)c(N=Nc3ccc(Cl)cc3)c(=O)n(-c3ccc(C)cc3)c2=S)cc1, the T/C (dose: 37.5 mg/kg/injection, schedule: Q01DX001 (ip), vehicle: Klucel (hydroxypropylcellulose) (HPC)) is reported as 97 % of control, the T/C (dose: 75.0 mg/kg/injection, schedule: Q01DX001 (ip), vehicle: Klucel (hydroxypropylcellulose) (HPC)) is reported as 107 % of control and the T/C (dose: 150.0 mg/kg/injection, schedule: Q01DX001 (ip), vehicle: Klucel (hydroxypropylcellulose) (HPC)) is reported as 96 % of control.

O=C(O)COc1c(F)cc([N+](=O)[O-])cc1[N+](=O)[O-] was tested, and the T/C (dose: 100.0 mg/kg/injection, schedule: Q04DX002 (ip), vehicle: Klucel (hydroxypropylcellulose) (HPC)) was 106 % of control, the T/C (dose: 200.0 mg/kg/injection, schedule: Q04DX002 (ip), vehicle: Klucel (hydroxypropylcellulose) (HPC)) was 91 % of control and the T/C (dose: 400.0 mg/kg/injection, schedule: Q04DX002 (ip), vehicle: Klucel (hydroxypropylcellulose) (HPC)) was 111 % of control.

CP(=O)(Cc1ccccc1)c1ccccc1 (stereo not given) was tested, and the T/C (dose: 75.0 mg/kg/injection, schedule: Q01DX001 (ip), vehicle: saline) was 101 % of control, the T/C (dose: 150.0 mg/kg/injection, schedule: Q01DX001 (ip), vehicle: saline) was 103 % of control and the T/C (dose: 300.0 mg/kg/injection, schedule: Q01DX001 (ip), vehicle: saline) was 103 % of control.

In the case of COc1cc(O)c(OC)cc1O, the T/C (dose: 100.0 mg/kg/injection, schedule: Q01DX009 (ip), vehicle: Klucel (hydroxypropylcellulose) (HPC)) is reported as 100 % of control, the T/C [1] is reported as 105 % of control and the T/C (dose: 200.0 mg/kg/injection, schedule: Q01DX009 (ip), vehicle: Klucel (hydroxypropylcellulose) (HPC)) is reported as 103 % of control. For the same molecule, the T/C [2] was 103 % of control, the T/C (dose: 400.0 mg/kg/injection, schedule: Q01DX009 (ip), vehicle: Klucel (hydroxypropylcellulose) (HPC)) was 97 % of control and the T/C [3] was 102 % of control.

For O=S(=O)(Nc1ccc(NS(=O)(=O)c2ccccc2)c(S(=O)(=O)c2ccccc2)c1)c1ccccc1, the T/C (dose: 100.0 mg/kg/injection, schedule: Q01DX009 (ip), vehicle: saline with Tween-80) was 100 % of control, the T/C (dose: 200.0 mg/kg/injection, schedule: Q01DX009 (ip), vehicle: saline with Tween-80) was 98 % of control and the T/C (dose: 400.0 mg/kg/injection, schedule: Q01DX009 (ip), vehicle: saline with Tween-80) was 94 % of control.

For CN(C)c1ccc(/C=C/c2ccc3ccccc3n2)c(F)c1, the T/C [1] was 100 % of control, the T/C [2] was 98 % of control and the T/C [3] was 93 % of control.

With CCCCN1CC1(C)C (stereo not given) the T/C (dose: 25.0 mg/kg/injection, schedule: Q01DX009 (ip), vehicle: saline) was 105 % of control, the T/C (dose: 50.0 mg/kg/injection, schedule: Q01DX009 (ip), vehicle: saline) was 105 % of control and the T/C (dose: 100.0 mg/kg/injection, schedule: Q01DX001 (ip), vehicle: saline) was 98 % of control. The T/C (dose: 100.0 mg/kg/injection, schedule: Q01DX009 (ip), vehicle: saline) was 106 % of control.

With O=C(Nc1ccccc1)Oc1c(Cl)cc(Cl)cc1Cl the T/C (dose: 0.78 mg/kg/injection, schedule: Q04DX002 (ip), vehicle: Klucel (hydroxypropylcellulose) (HPC)) was 97 % of control, the T/C (dose: 1.56 mg/kg/injection, schedule: Q04DX002 (ip), vehicle: Klucel (hydroxypropylcellulose) (HPC)) was 112 % of control and the T/C (dose: 3.13 mg/kg/injection, schedule: Q04DX002 (ip), vehicle: Klucel (hydroxypropylcellulose) (HPC)) was 94 % of control. The T/C (dose: 6.25 mg/kg/injection, schedule: Q04DX002 (ip), vehicle: Klucel (hydroxypropylcellulose) (HPC)) was 92 % of control, the T/C (dose: 12.5 mg/kg/injection, schedule: Q04DX002 (ip), vehicle: Klucel (hydroxypropylcellulose) (HPC)) was 110 % of control and the T/C (dose: 25.0 mg/kg/injection, schedule: Q04DX002 (ip), vehicle: Klucel (hydroxypropylcellulose) (HPC)) was 95 % of control.

BrC1CC2CCCCC2CC1Br (stereo not given) was tested, and the T/C (dose: 100.0 mg/kg/injection, schedule: Q01DX001 (ip), vehicle: carboxymethylcellulose (CMC)) was 98 % of control, the T/C (dose: 200.0 mg/kg/injection, schedule: Q01DX001 (ip), vehicle: carboxymethylcellulose (CMC)) was 101 % of control and the T/C (dose: 400.0 mg/kg/injection, schedule: Q01DX001 (ip), vehicle: carboxymethylcellulose (CMC)) was 101 % of control.
